Square brackets hold non-standard residues; d marks the D form. Ends that are not written are not given here.
How the values were obtained:
Type in all cases: biochemical
[1] = target: T1, C-terminal α-amidating enzyme AE-I (Xenopus laevis, UniProt P08478); test: Effect of substances on enzyme activity of AE-I
T1 construct: C-terminal α-amidating enzymes of the present invention can be extracted from the skin of Xenopus laevis; from tissue; host or cells: Xenopus laevis skin
T1 sequence (P08478 37-400 isoform P08478-2 limits assumed): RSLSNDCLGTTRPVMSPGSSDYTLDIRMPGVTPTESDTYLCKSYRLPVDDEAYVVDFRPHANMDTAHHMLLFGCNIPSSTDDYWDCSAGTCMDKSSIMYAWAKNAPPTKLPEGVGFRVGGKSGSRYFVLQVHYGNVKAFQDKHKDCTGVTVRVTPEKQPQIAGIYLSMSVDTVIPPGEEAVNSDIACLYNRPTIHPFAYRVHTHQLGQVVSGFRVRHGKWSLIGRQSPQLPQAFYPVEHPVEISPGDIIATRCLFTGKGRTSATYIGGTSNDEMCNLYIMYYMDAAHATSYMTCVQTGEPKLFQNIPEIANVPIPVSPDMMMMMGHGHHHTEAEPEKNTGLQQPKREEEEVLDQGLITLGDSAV
Experimental: C-terminal α-amidating enzyme of the present invention is assayed using synthetic peptide [^125 I]-Ac-Tyr-Phe-Gly as a substitute according to the following procedure. [^125 I]-Ac-Tyr-Phe-Gly (1 pmole, 70,000-150,000 cpm) was incubated with an enzyme preparation, in a final volume of 250 μl containing 0.2M Tris-HCl buffer (pH 7.0), 2 μM CuSo4, 0.25 mM ascorbic acid, 25 μg catalase (Boehringer), 0.1% Lubrol (PX type, Nakarai Chemicals). The reaction mixture was kept at 37° C. for 1 to 4 hours. Then 0.75 ml of 1M Tris-HCl buffer (pH 7.0) and 2 ml of the organic phase of an ethyl acetate/water mixture was added. Two phases were mixed vigorously on a Vortex mixer. After centrifugation at 3000 rpm for 3 min, the organic phase thus separated was transferred to another test tube. The radioactivity in organic and aqueous layers was each measured by a gamma scintillation counter. […] The yield of conversion was calculated from the ratio of the radioactivity in ethyl acetate phase to the total radioactivity. In this assay, one unit is defined as an amount of enzyme which converts 50% of added substrate [^125 I]-Ac-Try-Phe-Gly to [^125 I]-Ac-Tyr-Phe-NH2.

[2] = target: T1, C-terminal α-amidating enzyme AE-I; test: Conversion of substrate peptides to C-terminal α-amidated products by AE-I (reverse-phase HPLC); conditions: same procedure as Example 3; rates Tyr-Phe-Gly>Ac-Tyr-Phe-Gly>D-Tyr-Val-Gly>D-Tyr-Gly-Gly
Experimental: The 0.1 μg of the enzyme preparation AE-I prepared in Example 1 was incubated with 4 nmoles of Tyr-Gly-Gly-Phe-Met-Arg-Arg-Val-Gly as a substrate in 250 μl of a 0.2M Tris-HCl buffer (pH 7.0) containing 2 μM CuSO4, 0.25 mM ascorbic acid, 25 μg catalase, and 0.1% Lubrol, at 37° C. for 24 hours. After the reaction was terminated by the addition of 250 μl of 1% trifluoroacetic acid, the reaction mixture was applied to a TSK ODS-120A column (0.4×25 cm; Toyosoda), and elution was carried out using a linear gradient of 12 to 60% CH3 CN in 0.1% trifluoroacetic acid at a flow rate of 1.5 ml/min. The elute was analyzed for absorbance at 210 nm. FIG. 7A represents an elution pattern for a sample of the reaction mixture taken at 0 time, i.e., before the reaction, and FIG. 7B represents an elution pattern for a sample of the reaction mixture taken 24 hours after the reaction has started. […] In FIG. 7, arrows b and a represent positions at which the peaks of authentic substrate and authentic adrenorphin Tyr-Gly-Gly-Phe-Met-Arg-Arg-Val-NH2 respectively appear under the same condition. Adrenorphin corresponds to a peptide wherein C-terminal glycine has been converted to α-amide. Since the positions 1 and 2 match the positions a and b respectively, it is reasonable to assume that the reaction product corresponding to peak 1 is adrenorphin. This means that the enzyme of the present invention amidated the substrate at its C-terminal. To confirm this conclusion, the fraction 1 in FIG. 7 was hydrolyzed in 6M HCl at 110° C. for 24 hours, and the amino acid composition of the hydrolyzate was analyzed using an amino acid analyzer. Moreover, the presence of the C-terminal amide group in the fraction 1 was analyzed by thermolysin digestion followed by thin layer chromatography. All of the results confirmed that the reaction product is adrenorphin.
The same procedure as described in Example 3 was repeated except that, in place of Tyr-Gly-Gly-Phe-Met-Arg-Arg-Val-Gly(FIG. 8Δ), following substrates were used: […]

[3] = target: T1, C-terminal α-amidating enzyme AE-I; test: Kinetic constants of AE-I from Lineweaver-Burk plots; conditions: standard conditions
Experimental: C-terminal α-amidating enzyme of the present invention is assayed using synthetic peptide [^125 I]-Ac-Tyr-Phe-Gly as a substitute according to the following procedure. [^125 I]-Ac-Tyr-Phe-Gly (1 pmole, 70,000-150,000 cpm) was incubated with an enzyme preparation, in a final volume of 250 μl containing 0.2M Tris-HCl buffer (pH 7.0), 2 μM CuSo4, 0.25 mM ascorbic acid, 25 μg catalase (Boehringer), 0.1% Lubrol (PX type, Nakarai Chemicals). The reaction mixture was kept at 37° C. for 1 to 4 hours. Then 0.75 ml of 1M Tris-HCl buffer (pH 7.0) and 2 ml of the organic phase of an ethyl acetate/water mixture was added. Two phases were mixed vigorously on a Vortex mixer. After centrifugation at 3000 rpm for 3 min, the organic phase thus separated was transferred to another test tube. The radioactivity in organic and aqueous layers was each measured by a gamma scintillation counter. Under the conditions described above, over 98% of radioactivity of the authentic [^125 I]-Ac-Tyr-Phe-Gly was retained in an aqueous phase and over 98% of radioactivity of the authentic [^125 I]-Ac-Tyr-Phe-NH2 was transferred to an organic phase. The yield of conversion was calculated from the ratio of the radioactivity in ethyl acetate phase to the total radioactivity. In this assay, one unit is defined as an amount of enzyme which converts 50% of added substrate [^125 I]-Ac-Try-Phe-Gly to [^125 I]-Ac-Tyr-Phe-NH2.

In the case of O[C@H](CS)[C@H](O)CS (racemic) [dithiothreitol], the “Effect on enzyme activity” value ([1]; 1 mM dithiothreitol) is reported as “inhibited”.

O=S(=O)([O-])[O-].[Cu+2] [CuSO4] was tested, and the “Effect on enzyme activity inhibited by the thiol compound” value ([1]; additional 1.2 mM CuSO4 in presence of 1 mM dithiothreitol) was “restores the enzyme activity” and the “Effect on enzyme activity inhibited by EDTA” value ([1]; additional more than 0.12 mM CuSO4 in presence of 0.1 mM EDTA) was “restores the enzyme activity”.

For [Cu+2] [Cu^++], the “Requirement of Cu++ cation for enzyme activity” value [1] was “essential”.

With O=C(O)CN(CCN(CC(=O)O)CC(=O)O)CC(=O)O [EDTA] the “Effect on enzyme activity” value ([1]; 0.1 mM EDTA) was “inhibited”.

For CCN1C(=O)C=CC1=O [N-ethylmaleimide], the “Effect on enzyme activity inhibited by the thiol compound” value ([1]; 5 mM N-ethylmaleimide in presence of 1 mM dithiothreitol) was “restores the enzyme activity”.

For Ac-Tyr-Phe-Gly, the “Conversion of substrate by AE-I (FIG. 8)” value [2] was “converted to the corresponding des-Gly peptide α-amides”, the Km [3] was 0.35 µM and the Vmax [3] was 1.9 nmol/µg/h.

For “Tyr-Gly-Gly-Phe-Met-Arg-Arg-Val [desamido-adrenorphin]”, the “Conversion of substrate by AE-I (FIG. 8)” value [2] was “not affected by the enzyme”.

Tyr-Phe-Gly was tested, and the “Conversion of substrate by AE-I (FIG. 8)” value [2] was “converted to the corresponding des-Gly peptide α-amides”.

YGGFMRRVGRPE [BAM-12P] was tested, and the “Conversion of substrate by AE-I (FIG. 8)” value [2] was “not affected by the enzyme”.

With [dY]-Gly-Gly the “Conversion of substrate by AE-I (FIG. 8)” value [2] was “converted to the corresponding des-Gly peptide α-amides”.

[dY]-Val-Gly was tested, and the “Conversion of substrate by AE-I (FIG. 8)” value [2] was “converted to the corresponding des-Gly peptide α-amides”.

Source: patent publication US4921797A, “C-terminal alpha-amidating enzyme and process for production and use thereof” (Hisayuki Matsuo, priority 1986, dated 1990)
